{"source": "patent US11752175B2", "about": "“Compositions and methods for glaucoma” (AUFBAU MEDICAL INNOVATIONS LIMITED, priority 2018, dated 2023)", "system": "glaucoma-associated-EV-complex in POAG patient's aqueous humor", "assay": "Treating POAG aqueous humor samples with bimatoprost, EDC fixation, negative staining and TEM imaging", "set-up": "species or system human", "excerpt": "Methods for treating POAG aqueous humor samples with bimatoprost, and fixation of fluid with EDC, negative staining and TEM imaging. We sought to determine the effect of bimatoprost on EVs in aqueous humor of patients with glaucoma. To do this, we diluted the POAG aqueous humor sample with tris buffered saline (1:10 dilution) and added 1:1 volume of diluted POAG sample with either tris buffered saline (control) or bimatoprost. Lumigan was obtained directly from the dispensing bottle and was NOT diluted. 10 ul of POAG sample was mixed with 10 ul of TBS or 10 ul POAG sample was mixed with 10 ul of undiluted Lumigan. The tubes were then incubated in a thermocycler PCR machine and were allowed to sit for 72 hours at 37° C. The samples were then diluted (1:10). Next, we fixed with EDC on an electron microscopy grid using the following protocol. For 1 mls of EDC/ETT solution in 0.1 M 1-Methylimidazole buffer (pH 8.0). • 1. EDC-HCl powder should be stored at −20° C. under argon. To avoid condensation of humidity, only open bottles after they reached room temperature, i.e. take the bottle out of freezer 1 h before weighing out sample. • 2. EDC/5-ETT solution should be made at most 1 h prior to use. • 3. Pipette 5.76 ml of 0.1 M 1-Methylimidazole buffer (pH 8.0) into a 15 ml tube, vortex vigorously. • 4. Carefully spoon out the 0.078 g of ETT found in the “G” group, onto a piece of paper. Carefully pour the 0.078 g into the tube. • 5. Using the pH paper and pipet to check to be pH 8.0 • 6. Use a weighing paper to measure out 0.12 g of EDC. Carefully pour into the tube. Vortex vigorously. • 7. Discard unused solution. • 8. Using the pH paper and pipet to check to be pH 8.0 Poly L-lysine grids, EDC fixation, Glut-fixation, UA stain. • 1. Use formvar coated grids. • 2. Place them facing formvar side down to poly-lysine drops and let them sit for 5-10 min. • 3. Then you will withdraw the Poly-L-lysine • 4. Fasten down a piece of parchment paper to a 100 mm dish with tape or weight. Place grid down on parchment paper. Mix EDC solution with EVs • 1. Mix 2.5 ul of (Cold) EVs with 5 ul of (Cold) EDC solution in 1.5 ml siliconized tube. • 2. In the cold room, apply 5 μl sample (Aqueous humor) to the grid and wait 15 minutes to dry and for the EVs to settle to the bottom of the grid. • 3. Place in a humidified chamber and incubate at […] for at least 3 hours. Secondary Fixation with Glut • 1. Remove EDC-EV solution from the sample using a pipette. • 2. Fix with Glut, add 2-5 ul of glut fix and wait for 5 min • 3. Remove Glut with Pipet or lens paper Rinse Glut and EDC • 1. Apply water bubble to grid for 5 min • 2. Remove water bubble with pipette • 3. Add 5 ul of uranyl acetate onto grid (1 drop, blotting after the drop) • 4. Let grid dry, and place in grid box • 5. Take off stain with pipette Samples were then imaged with TEM. Treating large EV complexes with Bimatoprost breaks up the EV-complex, when compared to controls. To determine if glaucoma-associated-EV-aggregates visualized using the EDC fixation method were indeed a potential mediator of POAG, we hypothesized that treating it with a known glaucoma medication would change the morphology of the glaucoma-associated-EV-aggregates. Therefore, we opted to use Bimatoprost (lumigan), which is a ocular hypotensive agent that lowers IOP in normal, ocular hypertensive, and glaucomatous eyes. […]", "data": [{"molecule": "CCNC(=O)CCC/C=C\\C[C@@H]1[C@@H](/C=C/[C@@H](O)CCc2ccccc2)[C@H](O)C[C@@H]1O", "note": "[bimatoprost]", "values": [{"measurement": "evidence of large extracellular matrix or glaucoma-associated-EV-aggregates in TEM photographs", "setting": "POAG aqueous humor samples treated with bimatoprost (FIG. 11 c-d)", "value": "no evidence of large extracellular matrix nor glaucoma-associated-EV-aggregates"}, {"measurement": "number of glaucoma-associated-EV-complex, compared to POAG sample with placebo treatment", "setting": "POAG patient's aqueous humor, first subject (FIG. 11), undiluted Lumigan 1:1 with 1:10 diluted sample, 37° C. for 72 hours, TEM", "value": "substantial reduction"}, {"measurement": "size of POAG-associated EV complexes, compared to untreated glaucoma samples", "setting": "aqueous humor of a patient with POAG (FIG. 11), TEM", "value": "reduces the size"}, {"measurement": "size of POAG-associated EV complexes, compared to control-treated glaucoma samples", "setting": "aqueous humor of second subject with glaucoma (FIG. 13), TEM", "value": "reduces the size"}, {"measurement": "number of glaucoma-associated-EV-complexes, compared to placebo (buffered saline)", "setting": "second human subject with glaucoma (FIG. 12-13), 37° C. for 72 hours, TEM", "value": "substantial reduction"}]}]}
